{
  "source": "patent US20240024317A1",
  "about": "“CANCER TREATMENT USING BOSENTAN IN COMBINATION WITH A CHECKPOINT INHIBITOR” (Materia Therapeutics Inc., priority 2020, published 2024)",
  "format_in_all_cases": "in vivo, mice",
  "key": {"[1]": {"system": "4T1 tumors", "test": "Whole tumor RT-PCR mRNA expression"}, "[2]": {"system": "4T1 or E0771 tumors", "test": "Tumor growth under bosentan monotherapy (dose response studies)", "details": "bosentan monotherapy at any dose", "procedure": "(§1) Mice bearing syngeneic, orthotopic triple negative breast cancer (TNBC) were treated with a range of sub-therapeutic doses of bosentan, from 0.2 mg/kg to 10 mg/kg of body weight. Orthotopic models for murine mammary tumors were generated by implantation of 5×10^4 4T1 or E0771 cancer cells in 40 μl of serum-free medium into the third mammary fat pad of 6-8-week-old BALB/c and C57BL/6 female mice, respectively. 4T1 (ATCC® CRL-2539TH) and E0771 (94A001, CH3 BioSystems) mouse breast adenocarcinoma cell lines were purchased form ATCC and CH3 BioSystems, respectively. The cells were maintained at 37° C./5% CO2 in Roswell Park Memorial Institute medium (RPMI-1640, LM-R1637, Biosera) supplemented with 10% fetal bovine serum (FBS, FB-1001H, biosera) and 1% antibiotics (A5955, Sigma). Bosentan (bosentan Hydrate (S3051, Selleckchem) was dissolved in ddH2O containing 2% DMSO (GK2245, Glentham Life Science), 30% PEG300 (S6704, Selleckchem) and 2% Tween 80 (S6702, Selleckchem)) 1 mg/kg, 5 mg/kg, 10 mg/kg or equal volume of diluent (control group) was administered by intraperitoneal injection (i.p.) once a day for 10 days, starting from once the tumor volumes reached an average size of 100 mm^3. Tumors were excised when they reached an average size of 500 mm^3. Tissue stiffness was then measured non-invasively and longitudinally using ultrasound elastography. […]"}, "[3]": {"system": "E0771 tumors", "test": "Interstitial fluid pressure (IFP), wick-in-needle technique", "details": "1 mg/kg bosentan", "procedure": "as §1"}},
  "data": [
    {"smiles": "COc1ccccc1Oc1c(NS(=O)(=O)c2ccc(C(C)(C)C)cc2)nc(-c2ncccn2)nc1OCCO", "note": "[bosentan, 4-tert-butyl-N-[6-(2-hydroxy-ethoxy)-5-(2-methoxy-phenoxy)-2-(pyrimidin-2-yl)pyrimidin-4-yl] benzenesulfonamide]", "values": [
      {"measurement": "T cell activity expression (mRNA)", "setting": "[1]", "result": "increased"},
      {"measurement": "endothelial adhesion molecule expression (mRNA)", "setting": "[1]", "result": "increased"},
      {"measurement": "hypoxia related gene-expression (mRNA)", "setting": "[1]", "result": "reduced"},
      {"measurement": "tumor growth", "setting": "[2]", "result": "did not affect"},
      {"measurement": "interstitial fluid pressure", "setting": "[3]", "result": "decrease in interstitial fluid pressure"}
    ]}
  ]
}
